# According to patent US9382215B2, “Therapeutic methods and agents for treating myotonic dystrophy” (The Board of Trustees of the University of Illinois, priority 2012, dated 2016):
# Columns and labels:
# 3T3 mouse fibroblast = experiment: Toxicity / cell viability in 3T3 mouse fibroblasts; format: cell-based
# MBNL1-CUG interaction = target: T1, MBNL1-CUG interaction (Homo sapiens, UniProt Q9NR56); experiment: Electrophoretic mobility shift assay (EMSA) of inhibition of MBNL1-CUG interaction; format: biochemical
# T1 construct: An expression vector for MBNL1N (1-272 aminoacids) was obtained from Maurice S. Swanson; hexahis; made in house
# T1 sequence (Q9NR56 1-272): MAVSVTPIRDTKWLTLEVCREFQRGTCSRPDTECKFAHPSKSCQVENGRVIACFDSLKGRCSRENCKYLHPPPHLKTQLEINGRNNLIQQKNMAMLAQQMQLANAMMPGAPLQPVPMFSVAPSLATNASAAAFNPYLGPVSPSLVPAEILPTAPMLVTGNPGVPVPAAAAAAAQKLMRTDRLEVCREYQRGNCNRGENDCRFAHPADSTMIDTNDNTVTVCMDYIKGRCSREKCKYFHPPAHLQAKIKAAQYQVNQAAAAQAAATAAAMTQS
# Method: (§1) RNA was labeled with [γ-^32P]ATP using T4 polynucleotide kinase (New England Biolabs). Labeled RNA (5 μL, 0.5 nM) was heated at 95° C. for 2 min and then placed on ice for 10 min and diluted to 125 μL in RNA storage buffer (66 mM NaCl, 6.7 mM MgCl2, and 27 mM Tris.HCl (pH 7.5). If required for the experiment, tRNA was added to the RNA solution to give a final concentration of approximately 8 μM. The protein (MBNL1N) was serially diluted in binding buffer (175 mM NaCl, 5 mM MgCl2, 20 mM Tris.HCl (pH 7.5), 1.25 mM BME, 12.5% glycerol, 2 mg/mL BSA, and 0.1 mg/mL heparin), and 5 μL of protein solution was added to 5 μL of RNA solution (Warf and Berglund, RNA, 2007, 13, 2238-2251). The reaction mixture was incubated at room temperature for 25 min and loaded onto a 6% polyacrylamide gel (80:1) at 4° C. The gels were run for 1 hour at 360V in 22.5 mM Tris-borate buffer (pH 8). Gels were visualized on a Molecular Dynamics Storm phosphorimager. The apparent Kd values were obtained by fitting fraction RNA bound versus protein concentration using the following equation: fraction bound=1/(1+(Kd/[P]T)). All binding measurements were performed with a greater than 10-fold excess of protein over RNA in each binding reaction used to determine the Kd so that [P] would be approximately equal to [P]total.
# The inhibition of the MBNL1N-RNA complex was investigated using the above procedure except that the small molecule was added to the RNA-protein complex after 25 min of incubation. The reaction mixture was incubated for an additional 10-15 minutes at room temperature (˜23° C.). The inhibition assays were performed in the presence of 10% DMSO. To determine IC50 values, the free RNA versus small molecule concentration was fit to the equation: B=ΔB exp((−0.69/IC50)C)+Bf. B is the volume of the free RNA band in the gel, ΔB is the difference between the volumes of the free RNA bands at the lowest and highest concentrations of small molecule (Bi−Bf), C is the concentration of the small molecule, and IC50 is the concentration of small molecule at which B=(½ΔB)+Bf. […]
# MBNL1-CUG foci = experiment: Confocal microscopy of MBNL1-CUG foci in HeLa cells transfected with GFP-MBNL1 and DMPK (CUG)960; format: cell-based; settings: HeLa cells containing (CUG)960, confocal microscopy, preliminary results
# Text: In various embodiments, the compounds described herein can form MBNL1-CUG foci inside the nucleus for cells containing expanded CUG repeats.
# mice = experiment: Tolerability in mice, intraperitoneal injection; format: in vivo; settings: 100 mg/kg
# Method: (§2) The compounds are found to be non-toxic among different cell types tested, including DM1 patient cells and 3T3 mouse fibroblasts. In one experiment, three mice each were evaluated at 5, 10, 20 50, and 100 mg/kg of compound 1, given by intraperitoneal injection.
# [1] = Tolerability in mice, intraperitoneal injection; format: in vivo; settings: mouse, in vivo, ip, mice, 5-100 mg/kg tested, read-out: maximum tolerated dose
# Method: as §2
# CUG repeats = experiment: Binding to CUG repeats
# Method: (§3) Isothermal titration calorimetry measurements were performed at 25° C. on a MicroCal VP-ITC (MicroCal, Inc., Northampton, Mass.). A standard experiment consisted of titrating 10 μL of a 500 μM ligand from a 250 μL syringe (rotating at 300 rpm) into a sample cell containing 1.42 mL of a 20 μM DNA/RNA solution. The duration of the injection was set to 24 s, and the delay between injections was 300 s. The initial delay prior to the first injection was 60 s. To derive the heat associated with each injection, the area under each isotherm (microcalories per second versus seconds) was determined by integration by the graphing program Origin 5.0 (MicroCal, Inc. Northampton, Mass.). […] In many cases, additional sites are not detected by Job plot analysis and likely represent low-affinity sites. […]
# (§4) A cell sample (250 μL) of 0.2 μM a compound of interest (in 20 mM MOPS pH 7.0, 300 mM NaCl) was excited at 310 nm (excitation slit of 4 nm) and emission recorded between 470-530 nm (emission slit of 8 nm) monitoring the maximum at 495 nm. […] The sample was then allowed to equilibrate for 15 min and the fluorescence emission recorded. The decrease in fluorescence with increased DNA/RNA was monitored until the binding sites became saturated and the fluorescence change was no longer evident. […]
# MBNL1N-(CUG)12 RNA = target: T2, MBNL1N-(CUG)12 RNA (Homo sapiens, UniProt Q9NR56); experiment: Inhibition of MBNL1N binding to (CUG)12 RNA in the presence of competitor tRNA; format: biochemical
# T2 construct: An expression vector for MBNL1N (1-272 aminoacids) was obtained from Maurice S. Swanson; hexahis; made in house
# T2 sequence (Q9NR56 1-272): T1 sequence (Q9NR56 1-272)
# Method: as §1, with “[P]total. […]” for “[P]total.”
# Water solubility = format: physicochemical
# CTG repeats = experiment: Binding to CTG repeats
# Method: as §3, §4
# MBNL1N-(CUG)4 RNA = target: T3, MBNL1N-(CUG)4 RNA (Homo sapiens, UniProt Q9NR56); experiment: Inhibition of MBNL1N binding to (CUG)4 RNA in the presence of competitor tRNA; format: biochemical
# T3 construct: An expression vector for MBNL1N (1-272 aminoacids) was obtained from Maurice S. Swanson; hexahis; made in house
# T3 sequence (Q9NR56 1-272): T1 sequence (Q9NR56 1-272)
# Method: as §1, with “[P]total. […]” for “[P]total.”
compound,measurement,setting,value
"N=C(NCCCCNc1nc(N)nc(N)n1)c1ccc(C(=N)NCCCCNc2nc(N)nc(N)n2)cc1 [Compound 1, N^1,N^4-bis(4-((4,6-diamino-1,3,5-triazin-2-yl)amino)butyl)terephthalimidamide]",toxicity towards mouse fibroblasts,3T3 mouse fibroblast,non-toxic
same,cell viability,"3T3 mouse fibroblast; 100 μM, 3-day incubation",100%
same,IC50,MBNL1-CUG interaction; EMSA,11 µM
same,Ki,"MBNL1-CUG interaction; EMSA, read-out: inhibition constant (Ki) for MBNL1-CUG interaction",0.177 µM
same,inhibitory ability in EMSA screen compared to other inhibitor compounds (such as compound 5),MBNL1-CUG interaction; same concentration (100 μM),significantly improved inhibitory ability
same,disruption of MBNL1-CUG foci in the nucleus,MBNL1-CUG foci,significant disruption of foci
same,mice exhibiting neurotoxicity,mice,two of three
same,MTD,[1],50 mg/kg
same,affinity for CUG repeats,CUG repeats,high nanomolar affinity
same,Ki for inhibition of MBNL1N binding to (CUG)12 RNA,MBNL1N-(CUG)12 RNA,low micromolar
same,water solubility,Water solubility,improved water solubility
same,affinity for CTG repeats,CTG repeats,high nanomolar affinity
same,Ki for inhibition of MBNL1N binding to (CUG)4 RNA,MBNL1N-(CUG)4 RNA,low micromolar
